From patent US6989351B2, “Metabolic inhibitors against brassinosteroids” (Riken, priority 2000, dated 2006)

Assays:
[1] = system: metabolism of brassinolide; assay: brassinolide metabolism in cell free system (degradation associated with oxidation of the 26th position of brassinolide); type: biochemical; details: cell free system from immature seeds of Pisum sativum
Method: To examine whether the accelerating activity on elongation of the cress hypocotyl was on the basis of the inhibitory activity against the metabolism of brassinolide, which is considered to be a practically active brassinosteroid, activity of the compounds was examined in degradation system associated with oxidation of the 26th position of brassinolide. Immature seeds of Pisum sativum were used as plant materials. Brassinolide was added to a cell free system, and metabolic activity was determined by quantifying the compound at the right end in the following scheme to examine inhibitory action of difenoconazole against metabolism. [drawing 6]

[2] = system: brassinosteroid biosynthesis; assay: action on plants when used at a high concentration
Excerpt: Methods of application and doses of the metabolism inhibitor of the present invention can be suitably chosen by those skilled in the art depending on conditions including a purpose of application, a dosage form, a plot to be treated and the like. […] Such a phenomenon is recognized in difenoconazole, Brz217, Brz218, Brz224, Brz225 and the like, which are typical examples of the metabolism inhibitor of the present invention. Therefore, the metabolism inhibitor of the present invention is preferably applied to plants at a relatively low concentration. However, concentrations to achieve optimum action can be appropriately determined by those skilled in the art by referring to the following examples.

Q: Which “Ratio of metabolism inhibition degree (%) relative to control” value ([1]; 0.01 μM) does the source give for `CC1COC(Cn2cncn2)(c2ccc(Oc3ccc(Cl)cc3)cc2Cl)O1` (stereo not drawn) [Difenoconazole, difenoconazole] here?
A: 0%

Q: And the “Ratio of metabolism inhibition degree (%) relative to control” value ([1]; 0.1 μM)?
A: 7%

Q: And the “Ratio of metabolism inhibition degree (%) relative to control” value ([1]; 1.0 μM)?
A: 72%

Q: What about the “Ratio of metabolism inhibition degree (%) relative to control” value ([1]; 10 μM) of the same molecule?
A: 76%

Q: And the “action at a high concentration, opposite to the action of the metabolism inhibitor” value (from here on “action … of the metabolism inhibitor”) [2]?
A: inhibit brassinosteroid biosynthesis when used at a high concentration

Q: `COCC1COC(Cn2cncn2)(c2ccc(Cl)cc2)O1` (stereo not drawn) [Brz225] was tested. Which “action … of the metabolism inhibitor” value [2] did it give?
A: inhibit brassinosteroid biosynthesis when used at a high concentration

Q: Which “action … of the metabolism inhibitor” value [2] does the source give for `CCCC1COC(Cn2cncn2)(c2cccc(Cl)c2)O1` (stereo not drawn) [Brz218] here?
A: inhibit brassinosteroid biosynthesis when used at a high concentration

Q: With `CCCC1COC(Cn2cncn2)(c2ccc(OC)cc2)O1` (stereo not drawn) [Brz224] as the molecule, how does the “action … of the metabolism inhibitor” value [2] read?
A: inhibit brassinosteroid biosynthesis when used at a high concentration

Q: For `CCCC1COC(Cn2cncn2)(c2ccccc2Cl)O1` (stereo not drawn) [Brz217], which “action … of the metabolism inhibitor” value [2] is on record?
A: inhibit brassinosteroid biosynthesis when used at a high concentration
